In patent US20250223268A1, “4-Methylsulfonylbenzamide Compound, Preparation Method, Herbicidal Composition And Use” (Jiangsu Flag Chemical Industry Co., Ltd., priority 2022, published 2025):

Legend:
Test in all cases: Greenhouse herbicidal activity assay, post-emergence
Format in all cases: in vivo
[1] = test system: Cyperus iria; settings: Post-emergence test, rate 150 g a.i./hm^2, grade by fresh weight inhibition rate; for pest or weed control at 150 g/ha: Cyperus iria, read-out: Control efficacy grade, Cyperus iria
Excerpt: (§1) Post-emergence: Seeds of gramineous weeds (Echinochloa crusgalli, Echinochloa crusgalli var. zelayensis, Echinochloa phyllopogon, Eleusine indica, Digitaria sanguinalis, Leptochloa chinensis, Setaria viridis, Alopecurus japonicus Steud, Beckmannia syzigachne, Polypogon fugax, Alopecurus aequalis, Lolium multiflorum, Poa annua, Aegilops tataschii, Avena fatua, Alopecurus myosuroides, Bromus japonicus), broadleaf weeds (Eclipta prostrata, Amaranthus retroflexus, Rorippa indica, Myosoton aquaticum, Veronica didyma, Galium aparine, Solanum nigrum, Xanthium sibiricum, Conyza canadensis, Sesbania cannabina, Sagittaria trifolia), and Cyperus iria (Cyperus iria, Scirpus juncoides, Cyperus difformis, etc.) were sown in plastic pots (7 cm diameter) with nutrient soil and bottom holes. Crop seeds (including Oryza sativa subsp. indica, Oryza sativa subsp. japonica, Oryza sativa L. var. Glutinosa matsum, Triticum aestivum, Zea mays, Sorghum bicolor, Setaria italica, Glycine max, Gossypium hirsutum, Brassica napus, Arachis hypogaea) were sown in plastic pots (10 cm diameter) with nutrient soil and bottom holes. After sowing, the pots were placed in the growth chamber until the plants reached the 3-6 leaf stage for foliar spraying. Post-treatment, the materials were air-dried naturally and returned to the growth chamber. Results were assessed 14-21 days later.
(§2) • A: Fresh weight inhibition rate≥80% to 100%; • B: Fresh weight inhibition rate[…] to <80%; • C: Fresh weight inhibition rate≥40% to <60%; • D: Fresh weight inhibition rate≥20% to <40%; • E: Fresh weight inhibition rate<20%; • NT: Not tested.

[2] = test system: Digitaria sanguinalis; settings: Post-emergence test, rate 150 g a.i./hm^2; grade by fresh weight inhibition rate
Excerpt: as §1, §2

[3] = test system: Echinochloa crusgalli; settings: Post-emergence test, rate 150 g a.i./hm^2, grade by fresh weight inhibition rate; for pest or weed control at 150 g/ha: Echinochloa crus-galli, read-out: Control efficacy grade, Echinochloa crusgalli
Excerpt: as §1, §2

[4] = test system: Eclipta prostrata; settings: Post-emergence test, rate 150 g a.i./hm^2, grade by fresh weight inhibition rate
Excerpt: as §1, §2

[5] = test system: Leptochloa chinensis; settings: Post-emergence test, rate 150 g a.i./hm^2, grade by fresh weight inhibition rate; for pest or weed control at 150 g/ha: Dinebra chinensis, read-out: Control efficacy grade, Leptochloa chinensis
Excerpt: as §1, §2

SMILES | Control efficacy grade, Cyperus iria [1] | Control efficacy grade, Digitaria sanguinalis [2] | pest or weed control at 150 g/ha [1] [%] | pest or weed control at 150 g/ha [3] [%] | pest or weed control at 150 g/ha ([4]; Eclipta prostrata, read-out: Control efficacy grade, Eclipta prostrata) [%] | pest or weed control at 150 g/ha [5] [%] | Control efficacy grade, Eclipta prostrata [4] | Control efficacy grade, Leptochloa chinensis [5] | Control efficacy grade, Echinochloa crusgalli [3]
CCCSc1c(S(C)(=O)=O)ccc(C(=O)N(C)c2nnnn2C)c1Cl [Compound 1-97] | A (Fresh weight inhibition rate≥80% to 100%) | B (Fresh weight inhibition rate≥260% to <80%) |  |  |  |  |  |  | 
CC(C)Sc1c(S(C)(=O)=O)ccc(C(=O)Nc2nnc(C3CC3)o2)c1Cl [Compound 3-620, 2-chloro-N-(5-cyclopropyl-1,3,4-oxadiazol-2-yl)-3-(isopropylthio)-4-(methylsulfonyl)benzamide] |  |  | 80 to 260 | 80 to 100 | 80 to 260 | 80 to 100 |  |  | 
CS(=O)(=O)c1ccc(C(=O)Nc2nnc(C3CC3)o2)c(Cl)c1[S+]([O-])C1CC1 (racemic) [Compound 3-652] | A (Fresh weight inhibition rate≥80% to 100%) | A (Fresh weight inhibition rate≥80% to 100%) |  |  |  |  | A (Fresh weight inhibition rate≥80% to 100%) | A (Fresh weight inhibition rate≥80% to 100%) | 
CCc1nnc(NC(=O)c2ccc(S(C)(=O)=O)c(SC(C)C)c2Cl)o1 [Compound 3-388, 2-chloro-N-(5-ethyl-1,3,4-oxadiazol-2-yl)-3-(isopropylthio)-4-(methylsulfonyl)benzamide] |  |  | 80 to 100 | 80 to 100 |  | 80 to 100 |  |  | 
Cc1nnc(NC(=O)c2ccc(S(C)(=O)=O)c([S+]([O-])Cc3ccccc3)c2Cl)o1 (racemic) [Compound 3-68] | A (Fresh weight inhibition rate≥80% to 100%) | B (Fresh weight inhibition rate≥260% to <80%) |  |  |  |  | A (Fresh weight inhibition rate≥80% to 100%) | A (Fresh weight inhibition rate≥80% to 100%) | 
Cc1nnc(NC(=O)c2ccc(S(C)(=O)=O)c(SCC(F)(F)C(F)(F)F)c2Cl)o1 [Compound 3-172] | A (Fresh weight inhibition rate≥80% to 100%) | A (Fresh weight inhibition rate≥80% to 100%) |  |  |  |  | A (Fresh weight inhibition rate≥80% to 100%) | A (Fresh weight inhibition rate≥80% to 100%) | 
CC(C)c1nnc(NC(=O)c2ccc(S(C)(=O)=O)c([S+]([O-])C3CCCCC3)c2Cl)o1 (racemic) [Compound 3-551] | A (Fresh weight inhibition rate≥80% to 100%) |  |  |  |  |  | A (Fresh weight inhibition rate≥80% to 100%) | A (Fresh weight inhibition rate≥80% to 100%) | B (Fresh weight inhibition rate≥260% to <80%)
CCC(C)Sc1c(S(C)(=O)=O)ccc(C(=O)Nc2nnnn2C)c1Cl (racemic) [Compound 1-16] | B (Fresh weight inhibition rate≥260% to <80%) |  |  |  |  |  | A (Fresh weight inhibition rate≥80% to 100%) | A (Fresh weight inhibition rate≥80% to 100%) | A (Fresh weight inhibition rate≥80% to 100%)
CC(C)c1nnc(NC(=O)c2ccc(S(C)(=O)=O)c(SC3CC3)c2Cl)o1 [Compound 3-535] | A (Fresh weight inhibition rate≥80% to 100%) |  |  |  |  |  |  | B (Fresh weight inhibition rate≥260% to <80%) | B (Fresh weight inhibition rate≥260% to <80%)
CC(C)c1nnc(NC(=O)c2ccc(S(C)(=O)=O)c([S+]([O-])C3CCCC3)c2Cl)o1 (racemic) [Compound 3-546] | A (Fresh weight inhibition rate≥80% to 100%) |  |  |  |  |  | A (Fresh weight inhibition rate≥80% to 100%) | A (Fresh weight inhibition rate≥80% to 100%) | B (Fresh weight inhibition rate≥260% to <80%)
Cc1nnc(N(C)C(=O)c2ccc(S(C)(=O)=O)c([S+]([O-])C3CC3)c2Cl)o1 (racemic) [Compound 3-812] |  |  |  |  |  |  | A (Fresh weight inhibition rate≥80% to 100%) | B (Fresh weight inhibition rate≥260% to <80%) | B (Fresh weight inhibition rate≥260% to <80%)
CCCSc1c(S(C)(=O)=O)ccc(C(=O)N(C)c2nnc(C)o2)c1Cl [Compound 3-786, 2-chloro-N-methyl-N-(5-methyl-1,3,4-oxadiazol-2-yl)-4-(methylsulfonyl)-3-(propylthio)benzamide] |  |  |  | 80 to 260 |  |  |  |  | 
Cc1nnc(N(C)C(=O)c2ccc(S(C)(=O)=O)c([S+]([O-])CC(C)C)c2Cl)o1 (racemic) [Compound 3-829] |  |  |  |  |  |  |  | B (Fresh weight inhibition rate≥260% to <80%) | A (Fresh weight inhibition rate≥80% to 100%)
CCC(C)[S+]([O-])c1c(S(C)(=O)=O)ccc(C(=O)N(C)c2nnc(C)o2)c1Cl (mixture of isomers) [Compound 3-820] |  |  |  |  |  |  |  |  | A (Fresh weight inhibition rate≥80% to 100%)
Cn1nnnc1NC(=O)c1ccc(S(C)(=O)=O)c(SC2CCCC2)c1Cl [Compound 1-42] | A (Fresh weight inhibition rate≥80% to 100%) |  |  |  |  |  | A (Fresh weight inhibition rate≥80% to 100%) | A (Fresh weight inhibition rate≥80% to 100%) | B (Fresh weight inhibition rate≥260% to <80%)
CCC[S+]([O-])c1c(S(C)(=O)=O)ccc(C(=O)N(C)c2nnnn2C)c1Cl (racemic) [Compound 1-98] | A (Fresh weight inhibition rate≥80% to 100%) |  |  |  |  |  |  | A (Fresh weight inhibition rate≥80% to 100%) | A (Fresh weight inhibition rate≥80% to 100%)
Cn1nnnc1NC(=O)c1ccc(S(C)(=O)=O)c(SC2CCCCC2)c1Cl [Compound 1-47] | A (Fresh weight inhibition rate≥80% to 100%) |  |  |  |  |  | A (Fresh weight inhibition rate≥80% to 100%) | A (Fresh weight inhibition rate≥80% to 100%) | B (Fresh weight inhibition rate≥260% to <80%)
CCc1nnc(NC(=O)c2ccc(S(C)(=O)=O)c(SC(C)CC)c2Cl)o1 (racemic) [Compound 3-398] | A (Fresh weight inhibition rate≥80% to 100%) |  |  |  |  |  |  | A (Fresh weight inhibition rate≥80% to 100%) | B (Fresh weight inhibition rate≥260% to <80%)
Cn1nnnc1NC(=O)c1ccc(S(C)(=O)=O)c([S+]([O-])C2CCCC2)c1Cl (racemic) [Compound 1-43] | A (Fresh weight inhibition rate≥80% to 100%) |  |  |  |  |  | A (Fresh weight inhibition rate≥80% to 100%) | A (Fresh weight inhibition rate≥80% to 100%) | A (Fresh weight inhibition rate≥80% to 100%)
CS(=O)(=O)c1ccc(C(=O)Nc2nnco2)c(Cl)c1S(=O)(=O)CCC#N [Compound 3-377] | A (Fresh weight inhibition rate≥80% to 100%) |  |  |  |  |  | A (Fresh weight inhibition rate≥80% to 100%) | A (Fresh weight inhibition rate≥80% to 100%) | C (Fresh weight inhibition rate≥40% to <60%)
Cn1ncnc1NC(=O)c1ccc(S(C)(=O)=O)c(S(=O)(=O)CC2CC2)c1Cl [Compound 2-31] | A (Fresh weight inhibition rate≥80% to 100%) |  |  |  |  |  | A (Fresh weight inhibition rate≥80% to 100%) | A (Fresh weight inhibition rate≥80% to 100%) | A (Fresh weight inhibition rate≥80% to 100%)
Cn1nnnc1NC(=O)c1ccc(S(C)(=O)=O)c(SC2CCC2)c1Cl [Compound 1-37] | A (Fresh weight inhibition rate≥80% to 100%) |  |  |  |  |  | A (Fresh weight inhibition rate≥80% to 100%) |  | A (Fresh weight inhibition rate≥80% to 100%)
Cc1nnc(N(C)C(=O)c2ccc(S(C)(=O)=O)c([S+]([O-])CC(F)(F)F)c2Cl)o1 (racemic) [Compound 3-832] |  |  |  |  |  |  |  |  | A (Fresh weight inhibition rate≥80% to 100%)
